# Results from patent publication US10047051B2, “Substituted pyridines and method of use” (AbbVie S.á{acute over (.)}r.l., priority 2015, dated 2018).
# Key:
# CFTR ΔF508 mutant = biological target: T1, CFTR ΔF508 mutant (Homo sapiens, UniProt P13569, DEL508-508); assay: YFP-halide influx assay for the CFTR-ΔF508 mutation (CFBE41o- cells); format: cell-based; conditions: forskolin 10.67 μM; for EC50: from (1−F/F0) vs concentration plot
# T1 construct: expressed in transfected cells; host or cells: CFBE41o- cells, adenoviral transduction
# Excerpt: The YFP halide influx assay measured the functionality of the cystic fibrosis Transmembrane Conductance regulator (CFTR) channels in the cystic fibrosis bronchial epithelium cell line CFBE41o-. The assay was used to evaluate the capacity of compounds to increase the open probability of existing CFTR channels in the membrane. It makes use of the observation that the yellow fluorescent protein (YFP) variant YFP H148Q, I152L, F47L has its fluorescence substantially quenched by halide ions like Cl^− and I^− (Galietta, L. J. V., Haggie, P. M., Verkman, A. S., 2001. Green fluorescent protein-based halide indicators with improved chloride and iodide affinities. FEBS Lett. 499, 220-224. doi:10.1016/S0014-5793(01)02561-3; Nagai, T., Ibata, K., Park, E. S., Kubota, M., Mikoshiba, K., Miyawaki, A., 2002. A variant of yellow fluorescent protein with fast and efficient maturation for cell-biological applications. Nat. Biotechnol. 20, 87-90. doi: 10.1038/nbt0102-87).
# For this purpose, CFBE41o-cells were seeded in 384 well plates (3000 CFBE cells/well). One day after seeding, the CFBE cells were transduced with adenoviral vectors that direct the expression of the CFTR ΔF508 mutant and of the YFP reporter. Cells were incubated at 27° C., 5% CO2 for 24 hours so as to allow for the proper folding and migration to the membrane of the CFTR channel or treated with a CFTR modulator during 24 hours at 37° C.
# (§1) The I-induced quenching of fluorescence was recorded on an immediately after injection of iodide for 2 minutes on an FDSS/μCell (Hamamatsu). The capacity of a compound to increase the channel opening was directly correlated with the decrease in fluorescence, and was expressed as (1−(fluorescence after 36 seconds (F)/fluorescence before injection (F0))) and an EC50 was derived from a (1−F/F0) vs compound concentration plot.
# CFTR G551D mutant = biological target: T2, CFTR G551D mutant (Homo sapiens, UniProt P13569, G551D); assay: YFP-halide influx assay for the CFTR-G551D mutation (HEK293 cells); format: cell-based; conditions: forskolin 10.67 μM
# T2 construct: expressed in transfected cells; host or cells: HEK293 cells, reverse transfection with plasmids
# Excerpt: The YFP halide influx assay measured the functionality of the cystic fibrosis Transmembrane Conductance regulator (CFTR) channels. The assay was used to evaluate the capacity of compounds to increase the channel opening of existing mutant CFTR channels in the membrane. It makes use of the observation that the yellow fluorescent protein (YFP) variant YFP H148Q, I152L, F47L has its fluorescence substantially quenched by halide ions like Cl^− and I^− (Galietta, L. J. V., Haggie, P. M., Verkman, A. S., 2001. Green fluorescent protein-based halide indicators with improved chloride and iodide affinities. FEBS Lett. 499, 220-224. doi:10.1016/S0014-5793(01)02561-3).
# For this purpose, HEK293-cells were seeded in 96 well plates. During seeding, the cells were reverse-transfected with plasmid vectors that direct the expression of the CFTR G551D mutant and of the YFP reporter. Cells were incubated at 37° C., 5% CO2 for 24 hours so as to allow for sufficient expression of the CFTR protein.
# as §1, with “I^−-induced” for “I-induced”, “recorded” for “recorded on an”, “I^−” for “iodide”, “7 seconds.” for “2 minutes on an FDSS/μCell (Hamamatsu).”, “7” for “36”
# T2 sequence (P13569 whole entry G551D): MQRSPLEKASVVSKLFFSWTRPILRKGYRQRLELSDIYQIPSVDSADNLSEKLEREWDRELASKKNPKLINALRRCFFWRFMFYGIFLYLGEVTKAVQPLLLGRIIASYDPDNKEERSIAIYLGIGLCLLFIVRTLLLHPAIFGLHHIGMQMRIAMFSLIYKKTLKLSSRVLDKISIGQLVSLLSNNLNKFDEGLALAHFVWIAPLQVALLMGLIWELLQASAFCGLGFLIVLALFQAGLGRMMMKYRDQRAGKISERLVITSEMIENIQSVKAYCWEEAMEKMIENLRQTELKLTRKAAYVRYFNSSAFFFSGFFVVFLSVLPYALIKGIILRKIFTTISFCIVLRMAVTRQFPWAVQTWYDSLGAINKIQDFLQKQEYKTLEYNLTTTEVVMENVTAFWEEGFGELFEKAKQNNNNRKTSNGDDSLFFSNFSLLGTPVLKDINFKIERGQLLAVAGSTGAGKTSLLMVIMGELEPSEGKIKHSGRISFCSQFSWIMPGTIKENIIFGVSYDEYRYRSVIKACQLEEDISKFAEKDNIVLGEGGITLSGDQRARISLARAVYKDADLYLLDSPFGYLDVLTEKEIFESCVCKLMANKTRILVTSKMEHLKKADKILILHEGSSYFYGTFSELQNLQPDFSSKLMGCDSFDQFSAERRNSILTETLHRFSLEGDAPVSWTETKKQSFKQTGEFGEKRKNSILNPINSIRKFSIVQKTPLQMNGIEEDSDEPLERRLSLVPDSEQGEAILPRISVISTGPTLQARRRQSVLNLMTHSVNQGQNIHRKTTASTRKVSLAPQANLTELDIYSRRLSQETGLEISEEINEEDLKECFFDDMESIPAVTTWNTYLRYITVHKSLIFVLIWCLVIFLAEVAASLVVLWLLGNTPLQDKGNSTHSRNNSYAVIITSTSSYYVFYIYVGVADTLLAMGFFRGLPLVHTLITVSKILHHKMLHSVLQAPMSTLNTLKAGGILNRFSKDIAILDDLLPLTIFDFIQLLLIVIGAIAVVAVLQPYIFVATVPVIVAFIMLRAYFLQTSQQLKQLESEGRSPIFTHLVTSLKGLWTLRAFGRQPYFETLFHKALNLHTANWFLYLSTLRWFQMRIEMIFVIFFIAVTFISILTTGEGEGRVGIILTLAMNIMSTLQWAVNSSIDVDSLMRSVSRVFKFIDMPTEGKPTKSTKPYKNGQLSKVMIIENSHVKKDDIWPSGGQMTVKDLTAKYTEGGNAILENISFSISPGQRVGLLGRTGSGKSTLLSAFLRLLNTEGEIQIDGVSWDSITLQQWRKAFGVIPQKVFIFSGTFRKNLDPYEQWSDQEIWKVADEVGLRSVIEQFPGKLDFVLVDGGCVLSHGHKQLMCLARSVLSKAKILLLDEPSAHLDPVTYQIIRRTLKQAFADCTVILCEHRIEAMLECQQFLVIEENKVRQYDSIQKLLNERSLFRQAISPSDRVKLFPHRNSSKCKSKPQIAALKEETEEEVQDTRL
# T1 sequence (P13569 with tags, fused parts or gaps DEL508-508): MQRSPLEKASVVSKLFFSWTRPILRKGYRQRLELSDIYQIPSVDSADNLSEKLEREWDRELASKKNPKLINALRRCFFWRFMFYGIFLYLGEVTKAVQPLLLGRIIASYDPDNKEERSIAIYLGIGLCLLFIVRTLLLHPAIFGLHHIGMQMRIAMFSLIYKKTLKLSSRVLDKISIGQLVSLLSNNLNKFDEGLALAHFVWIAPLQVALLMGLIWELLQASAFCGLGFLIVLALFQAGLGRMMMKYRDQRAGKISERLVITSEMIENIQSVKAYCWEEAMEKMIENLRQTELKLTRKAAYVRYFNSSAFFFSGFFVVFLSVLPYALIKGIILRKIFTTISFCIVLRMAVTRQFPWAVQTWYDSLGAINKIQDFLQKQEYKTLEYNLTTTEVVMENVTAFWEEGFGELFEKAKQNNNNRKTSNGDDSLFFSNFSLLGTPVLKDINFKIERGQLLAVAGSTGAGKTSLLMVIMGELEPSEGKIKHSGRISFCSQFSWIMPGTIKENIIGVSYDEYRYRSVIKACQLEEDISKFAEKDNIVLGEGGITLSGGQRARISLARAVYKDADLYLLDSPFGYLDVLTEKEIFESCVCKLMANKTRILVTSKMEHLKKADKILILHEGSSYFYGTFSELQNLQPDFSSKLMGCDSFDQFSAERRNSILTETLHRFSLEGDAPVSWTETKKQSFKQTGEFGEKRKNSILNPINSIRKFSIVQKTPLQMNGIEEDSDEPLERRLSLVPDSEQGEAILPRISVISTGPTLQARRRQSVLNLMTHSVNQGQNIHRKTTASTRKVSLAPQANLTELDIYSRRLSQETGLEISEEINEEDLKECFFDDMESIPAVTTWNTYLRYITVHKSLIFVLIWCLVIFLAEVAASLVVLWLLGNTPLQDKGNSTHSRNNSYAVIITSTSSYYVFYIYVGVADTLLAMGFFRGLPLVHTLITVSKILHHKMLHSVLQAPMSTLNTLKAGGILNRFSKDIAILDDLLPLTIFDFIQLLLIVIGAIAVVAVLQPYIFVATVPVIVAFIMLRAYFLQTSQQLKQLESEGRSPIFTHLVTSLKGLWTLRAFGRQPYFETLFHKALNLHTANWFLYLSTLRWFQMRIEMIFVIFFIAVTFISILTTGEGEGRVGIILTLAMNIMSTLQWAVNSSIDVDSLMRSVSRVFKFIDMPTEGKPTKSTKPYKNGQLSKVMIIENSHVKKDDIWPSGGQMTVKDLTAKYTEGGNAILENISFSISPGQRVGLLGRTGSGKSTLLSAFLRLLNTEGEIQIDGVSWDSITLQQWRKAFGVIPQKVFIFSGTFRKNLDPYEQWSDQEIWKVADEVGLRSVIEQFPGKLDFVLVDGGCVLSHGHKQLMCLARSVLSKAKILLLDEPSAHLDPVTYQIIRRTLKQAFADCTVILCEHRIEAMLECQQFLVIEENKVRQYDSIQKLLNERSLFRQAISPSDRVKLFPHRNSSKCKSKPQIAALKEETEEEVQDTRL
Structure (SMILES),% Activation (CFTR ΔF508 mutant) [%],EC50 (CFTR ΔF508 mutant) [nM],% Activation (CFTR G551D mutant) [%],EC50 (CFTR G551D mutant) [nM]
"CC(C)(O)CNC(=O)c1ncc(S(=O)(=O)c2ccc(F)cc2)cc1N [Compound 10, 3-amino-5-[(4-fluorophenyl)sulfonyl]-N-(2-hydroxy-2-methylpropyl)pyridine-2-carboxamide]",106.4,148,52.2,> 3330
"CC(C)C(CO)NC(=O)c1ncc(S(=O)(=O)c2ccc(OC(F)(F)F)cc2)cc1N (stereo not drawn) [Compound 13, 3-amino-N-(1-hydroxy-3-methylbutan-2-yl)-5-{[4-(trifluoromethoxy)phenyl]sulfonyl}pyridine-2-carboxamide]",101.0,39.9,21.3,> 10000
"Nc1cc(S(=O)(=O)c2ccc(F)cc2)cnc1C(=O)NCC(O)C(F)(F)F (stereo not drawn) [Compound 27, 3-amino-5-[(4-fluorophenyl)sulfonyl]-N-(3,3,3-trifluoro-2-hydroxypropyl)pyridine-2-carboxamide]",101.0,10.1,55.0,1240
"CC(C)(O)CNC(=O)c1ncc(S(=O)(=O)c2cccc(F)c2)cc1N [Compound 39, 3-amino-5-[(3-fluorophenyl)sulfonyl]-N-(2-hydroxy-2-methylpropyl)pyridine-2-carboxamide]",42.5,155,5.0,> 10000
"COC1CN(C(=O)c2ncc(S(=O)(=O)c3ccc(OC(F)(F)F)cc3)cc2N)C1 [Compound 42, (3-amino-5-{[4-(trifluoromethoxy)phenyl]sulfonyl}pyridin-2-yl)(3-methoxyazetidin-1-yl)methanone]",105.5,37.1,64.3,> 3330
"CC(C)C[C@H](CO)NC(=O)c1ncc(S(=O)(=O)c2ccc(OC(F)(F)F)cc2)cc1N [Compound 46, 3-amino-N-[(2R)-1-hydroxy-4-methylpentan-2-yl]-5-{[4-(trifluoromethoxy)phenyl]sulfonyl}pyridine-2-carboxamide]",41.4,1160,3.5,> 10000
"COCC(O)CCNC(=O)c1ncc(S(=O)(=O)c2ccc(OC(F)(F)F)cc2)cc1N (stereo not drawn) [Compound 54, 3-amino-N-(3-hydroxy-4-methoxybutyl)-5-{[4-(trifluoromethoxy)phenyl]sulfonyl}pyridine-2-carboxamide]",89.2,72.9,62.6,1660
"Nc1cc(S(=O)(=O)c2ccc(OC(F)(F)F)cc2)cnc1C(=O)N1CC(N2CCOCC2)C1 [Compound 60, (3-amino-5-{[4-(trifluoromethoxy)phenyl]sulfonyl}pyridin-2-yl)[3-(morpholin-4-yl)azetidin-1-yl]methanone]",105.0,67.2,71.1,3120
"N#CC1CN(C(=O)c2ncc(S(=O)(=O)c3ccc(OC(F)(F)F)cc3)cc2N)C1 [Compound 61, 1-[(3-amino-5-{[4-(trifluoromethoxy)phenyl]sulfonyl}pyridin-2-yl)carbonyl]azetidine-3-carbonitrile]",101.0,60.9,70.0,2730

# Continued, values first:
% Activation (CFTR ΔF508 mutant) [%],EC50 (CFTR ΔF508 mutant) [nM],% Activation (CFTR G551D mutant) [%],EC50 (CFTR G551D mutant) [nM],Structure (SMILES)
114.5,36.1,43.8,692,"CCC(CO)NC(=O)c1ncc(S(=O)(=O)c2ccc(OC(F)(F)F)cc2)cc1N (stereo not drawn) [Compound 12, 3-amino-N-(1-hydroxybutan-2-yl)-5-{[4-(trifluoromethoxy)phenyl]sulfonyl}pyridine-2-carboxamide]"
102.2,54.1,53.2,778,"Nc1cc(S(=O)(=O)c2ccc(OC(F)(F)F)cc2)cnc1C(=O)NCC1(CO)CC1 [Compound 22, 3-amino-N-{[1-(hydroxymethyl)cyclopropyl]methyl}-5-{[4-(trifluoromethoxy)phenyl]sulfonyl}pyridine-2-carboxamide]"
103.9,78.2,57.4,2150,"Nc1cc(S(=O)(=O)c2ccc(OC(F)(F)F)cc2)cnc1C(=O)NCC1(CO)CCC1 [Compound 23, 3-amino-N-{[1-(hydroxymethyl)cyclobutyl]methyl}-5-{[4-(trifluoromethoxy)phenyl]sulfonyl}pyridine-2-carboxamide]"
97.2,50.4,51.9,2330,"Nc1cc(S(=O)(=O)c2ccc(OC(F)(F)F)cc2)cnc1C(=O)NCC1(O)CCOC1 (stereo not drawn) [Compound 28, 3-amino-N-[(3-hydroxytetrahydrofuran-3-yl)methyl]-5-{[4-(trifluoromethoxy)phenyl]sulfonyl}pyridine-2-carboxamide]"
94.1,54.6,58.7,1500,"Nc1cc(S(=O)(=O)c2ccc(OC(F)(F)F)cc2)cnc1C(=O)NCC1(O)CCOCC1 [Compound 29, 3-amino-N-[(4-hydroxytetrahydro-2H-pyran-4-yl)methyl]-5-{[4-(trifluoromethoxy)phenyl]sulfonyl}pyridine-2-carboxamide]"
94.6,53.7,36.4,5770,"Nc1cc(S(=O)(=O)c2ccc(F)cc2)cnc1C(=O)NCC1(O)CC1 [Compound 30, 3-amino-5-[(4-fluorophenyl)sulfonyl]-N-[(1-hydroxycyclopropyl)methyl]pyridine-2-carboxamide]"
99.0,91.1,70.2,1480,"CC(C)(CCO)CNC(=O)c1ncc(S(=O)(=O)c2ccc(OC(F)(F)F)cc2)cc1N [Compound 34, 3-amino-N-(4-hydroxy-2,2-dimethylbutyl)-5-{[4-(trifluoromethoxy)phenyl]sulfonyl}pyridine-2-carboxamide]"
110.4,84.7,78.7,2390,"Nc1cc(S(=O)(=O)c2ccc(OC(F)(F)F)cc2)cnc1C(=O)NCC(O)C1CCOCC1 (stereo not drawn) [Compound 35, 3-amino-N-[2-hydroxy-2-(tetrahydro-2H-pyran-4-yl)ethyl]-5-{[4-(trifluoromethoxy)phenyl]sulfonyl}pyridine-2-carboxamide]"
90.8,57.5,23.5,> 10000,"Nc1cc(S(=O)(=O)c2ccc(OC(F)(F)F)cc2)cnc1C(=O)NC[C@@H](O)CO [Compound 50, 3-amino-N-[(2R)-2,3-dihydroxypropyl]-5-{[4-(trifluoromethoxy)phenyl]sulfonyl}pyridine-2-carboxamide]"
96.8,30.2,51.2,1130,"CC(C)(O)CCNC(=O)c1ncc(S(=O)(=O)c2ccc(OC(F)(F)F)cc2)cc1N [Compound 51, 3-amino-N-(3-hydroxy-3-methylbutyl)-5-{[4-(trifluoromethoxy)phenyl]sulfonyl}pyridine-2-carboxamide]"
95.6,41.4,54.0,1820,"C[C@H](O)CCNC(=O)c1ncc(S(=O)(=O)c2ccc(OC(F)(F)F)cc2)cc1N [Compound 53, 3-amino-N-[(3S)-3-hydroxybutyl]-5-{[4-(trifluoromethoxy)phenyl]sulfonyl}pyridine-2-carboxamide]"
92.2,20.6,42.3,1070,"Nc1cc(S(=O)(=O)c2ccc(OC(F)(F)F)cc2)cnc1C(=O)NCC(=O)NC1CC1 [Compound 58, 3-amino-N-[2-(cyclopropylamino)-2-oxoethyl]-5-{[4-(trifluoromethoxy)phenyl]sulfonyl}pyridine-2-carboxamide]"
